Consider three compounds from patent EP0958820A1, “Use of an imidazol derivative for the manufacture of a medicament for treating auto-immunodiseases” (Sanofi-Synthélabo, priority 1998, dated 1999).

What all share (type): cell-based
The subject of assay [1] is IL-4 production from mouse BMMC. As to the kind of experiment: Antigen-induced IL-4 production from mouse BMMC (ELISA). As to the method:
(§1) • 1. Test drugs Mizolastine and terfenadine used were synthesised according to well known method in the art. Ketotifen fumarate (hereinafter 'ketotifen') was obtained from Toa Boshoku and dexamethasone from Sigma. • 2. Animals […] female mice and Balb/c female mice were used. • 3. Preparation of bone marrow-derived mast cells (hereinafter 'BMMC') Mouse BMMC were prepared in accordance with the method of Saito et al. J. Immunol. 138: 3927-3934, 1987. That is to say, femoral bone marrow cells from female CBA/J mice were suspended to concentrations of 2-5 x 10^5/ml in RPMI 1640 medium to which 50% of WEHI-3 culture supernatant had been added (containing 10% FBS, 5 x 10^-5M 2-mercaptoethanol, 50IU/ml penicillin, […] streptomycin). • 4. Production of IL-4 and TNF-α from mouse BMMC A 1/250 volume of anti-mouse DNP-IgE monoclonal antibody (Seikagaku Kogyo, […]) was added to mouse BMMC (2 x 10^6 cells/ml) and they were further sensitised by being incubated overnight. The sensitised BMMC were washed three times with RPMI 1640 medium, then suspended in RPMI 1640 medium to which 50% of WEHI-3 culture supernatant had been added to give 1.25 x 10^6 cells/ml (IL-4) or 3.75 x 10^6 cells/ml (TNF-α ). Having added 40 µl of a test drug solution prepared as a ten-fold dilution to 320 µl/well of the cell suspension and treated the cells for 30 minutes to one hour at 37°C in 5% CO2, antigen stimulation was applied adding 40 µl of a solution of dinitrophenyl human serum albumin (Sigma; hereinafter 'DNP-HSA'; 300ng/ml) (reaction solution 400 µl/well/48 well plate, final cell concentration 1∼3 x 10^6 cells/ml, final antigen concentration 30ng/ml). The level of the cytokine in the supernatant fluid from the culture was assayed by ELISA 18 hours (IL-4) or 4 hours (TNF-α ) following stimulation with the antigen. • 5. […] The level of TNF-α in the culture supernatant fluid was determined by ELISA 18 hours after stimulating with okadaic acid. • 6. […]
(In general: An ELISA detects its analyte on a solid surface through an enzyme-linked reagent.)

Assay [2] deals with TNF-α production from mouse BMMC. As to the kind of experiment: Antigen-induced TNF-α production from mouse BMMC (ELISA). The following applies: 4 hours after antigen. How it is done:
as §1

The subject of assay [3] is TNF-α production from mouse macrophages. Kind of assay: Okadaic acid-induced TNF-α production from mouse peritoneal macrophages (ELISA). As to conditions: Macrophage, okadaic acid 0.2 µM, 18 hours. How it is done:
as §1, with “).” for “). Having added 40 µl of a test drug solution prepared as a ten-fold dilution to 320 µl/well of the cell suspension and treated the cells for 30 minutes to one hour at 37°C in 5% CO2, antigen stimulation was applied adding 40 µl of a solution of dinitrophenyl human serum albumin (Sigma; hereinafter 'DNP-HSA'; 300ng/ml) (reaction solution 400 µl/well/48 well plate, final cell concentration 1∼3 x 10^6 cells/ml, final antigen concentration 30ng/ml). The level of the cytokine in the supernatant fluid from the culture was assayed by ELISA 18 hours (IL-4) or 4 hours (TNF-α ) following stimulation with the antigen. • 5.”

Molecules are shown by their SMILES. Where a name gives a salt, the structure may show the parent alone.

In general, inhibition refers to the relative decrease from the control value, in per cent. Take `CN1CCC(=C2c3ccccc3CC(=O)c3sccc32)CC1` [Ketotifen, Ketotifen fumarate]: the inhibition at 10 µM in assay [1] (Mus musculus, at 10 µM, DNP-HSA stimulated, anti-DNP-IgE sensitised BMMC, 18 hours) was determined as 65.6%. Also, in assay [2] (0.1∼10 µM), the “activity against TNF-α production” value is recorded as “no activity”.
As for `CC(C)(C)c1ccc(C(O)CCCN2CCC(C(O)(c3ccccc3)c3ccccc3)CC2)cc1` (stereo not shown) [terfenadine], in assay [1] (concentrations of 0.01∼1 µM), the “activity on IL-4 production” value is given as “no activity”. Moreover, the “activity against TNF-α production” value in assay [2] (0.01∼1 µM) is recorded as “no activity”. Besides, the inhibition at 1 µM in assay [3] is 24.6%.
Turning to `C[C@@H]1C[C@H]2[C@@H]3CCC4=CC(=O)C=C[C@]4(C)[C@@]3(F)[C@@H](O)C[C@]2(C)[C@@]1(O)C(=O)CO` [Dexamethasone, dexamethasone], the inhibition at 1 µM in assay [1] (Mus musculus, at 1 µM, DNP-HSA stimulated, anti-DNP-IgE sensitised BMMC, 18 hours) came to 61.6%; in assay [2] (Mus musculus, at 1 µM), 68.7%.
